Reference: US8618068B2, “Methods and low dose regimens for treating red blood cell disorders” (priority 2009, dated 2013)
“Also recorded” adds a separate entry of the source.

Legend:
in vivo [1] = assay: in vivo; design: species or system Beagle dogs; conditions: dog
Text: Completed toxicology studies conducted with DMB include a single-dose toxicity study in Sprague-Dawley rats, escalating dose toxicity study in Beagle dogs, a repeat dose study of 14-Day duration in Sprague-Dawley rats and repeat-dose toxicity studies of 28-Day duration in Sprague-Dawley rats and Beagle dogs, and 26-Week studies in Sprague-Dawley rats and Beagle dogs. […] Reproductive toxicity studies include two dose-range finding studies, one in Sprague-Dawley rats, the other in New Zealand white rabbits. DMB was administered once a day (QD) orally via gavage; doses are expressed as the sodium salt. In addition, an array of genotoxicity studies were conducted with DMB.
Based on the results of this study, the NOEL for DMB in male and female Beagle dogs was 50 mg/kg/day; and the NOAEL for DMB in male and female Beagle dogs was at least 300 mg/kg/day, the highest dose administered over the 26-Week treatment period.

in vivo [2] = assay: in vivo; design: species or system Sprague-Dawley rats; conditions: rat; for NOAEL at 14 days: Sprague-Dawley
Protocol: […] With respect to the FOB measurements, the effect of DMB appeared to be more pronounced in females than males. […] However, decreased motor activity, reduced rectal temperature, direct limbic effects such as a deficit in visual tactile placing accuracy, ataxia, dragging of the hindlimbs in the open field, and decreased grip strength and neuromotor-neuromuscular deficits were only documented in the female rats at 600 mg/kg. In the male rats, these effects were present only in the animals treated with 1,000 mg/kg.

[3] = Cardiovascular and hemodynamic effects, 28-Day Beagle dog study; assay type: in vivo, Beagle dogs
Protocol: Cardiovascular safety pharmacology assessments included an in vitro screen to evaluate the effects of DMB on cardiac ion channel and an in vivo evaluation of cardiovascular and hemodynamic effects in Beagle dogs. Electrophysiologic effects were evaluated in laboratory studies utilizing voltage-clamped human embryonic kidney cells transformed by adenovirus cDNA and transfected with cDNA in order to stably express the human ether a-go-go related gene (hERG). The effect on cellular hERG channels was evaluated at DMB concentrations up to 1 mM (138 μg/mL).

human γ-globin mRNA = assay: Human γ-globin mRNA synthesis in βYAC transgenic mice; assay type: in vivo; conditions: IP 500 mg/kg/day
Text: Transgenic mice containing the human β globin gene locus in a yeast artificial chromosome (βYAC) displaying the correct developmental regulation of ε-, γ-, and β-globin genes (with a silenced y-globin gene in the adult stage) were used to study the effects of DMB on γ-globin induction and erythroid cell production. In the μLCR-human A γ-globin transgenic mice, the y-globin mRNA expression relative to murine α-globin mRNA was increased by a mean of 1.8-fold above the baseline after treatment with DMB. In the βYAC transgenic mice at intraperitoneal (IP) doses of 500 mg/kg/day, DMB induced a 2-fold increase in human γ-globin mRNA synthesis relative to that of total non-α-globin. This level of induction was similar to that seen with 1,000 mg/kg/day of butyrate, and the changes were observed from 3 days after treatment initiation and persisted until 3 to 5 days after treatment termination.

[4] = Phase 1 single dose clinical study, safety; assay type: in vivo, human
Protocol: The first clinical study was a phase 1, double-blind, placebo-controlled, single dose study of the tolerability, safety and pharmacokinetics of DMB in 32 healthy volunteers. Healthy, fasting adult volunteers received single oral doses of DMB or placebo capsules at one of four dose levels (2 mg/kg, 5 mg/kg, 10 mg/kg and 20 mg/kg). Six subjects received study drug (24 subjects total) and 2 subjects received placebo at each dose level. The 8 placebo subjects received a capsule containing only the excipients from the capsules containing the active agent. Subjects at the 20 mg/kg also received a second dose of study drug after a defined meal, one week following the fasting dose.
Physical examinations, vital signs and neurologic examinations were normal throughout the study. No signs or symptoms of clinical significance were observed. One subject developed transient mild hypotension after dosing, which was clinically asymptomatic, and the Principal Investigator considered this finding to be of no clinical significance. Postural changes in blood pressure and pulse were not evaluated. There were 3 electrocardiogram abnormalities among patients treated with active study medication and 3 among the placebo subjects, all of which were considered to be of no clinical significance. All laboratory studies, including chemistries, coagulation studies, hematology studies and urinalyses were either normal or of no clinical significance except for one subject in whom a urinary tract infection was diagnosed but not disclosed prior to study test article administration. The data are reported for each cohort including the N of subjects that received placebo or study drug. All events were assessed as mild by the Principal Investigator. The reported AEs are shown by Cohort following Table 10. The only AEs considered possibly or probably related to study medication included upper abdominal pain, which occurred in one subject in the 2 mg/kg treatment group, one subject with dizziness in the placebo treatment group, and one subject with dysphoria in the 10 mg/kg treatment group. No subjects discontinued treatment due to AEs and there were no SAEs reported in this study.

[5] = test system: S. typhimurium tester strains TA98, TA100, TA1535, and TA1537; assay: Ames reverse bacterial mutagenicity test; conditions: with and without S9 mix
Protocol: (§1) The standard battery of in vitro genetic toxicity tests were conducted with DMB. These tests were conducted with positive and vehicle controls, with and without metabolic activation, as appropriate, and in accordance with accepted guidelines.
(§2) For the Ames (reverse bacterial mutagenicity test), the tester strains used in the mutagenicity assay were S. typhimurium tester strains TA98, TA100, TA1535, and TA1537 and E. coli tester strain WP2uvrA. The assay was conducted in both the presence and absence of S9 mix along with concurrent vehicle and positive controls using three plates per dose.

[6] = test system: E. coli tester strain WP2uvrA; assay: Ames reverse bacterial mutagenicity test; conditions: with and without S9 mix
Protocol: as §1, §2

CCC(C)(C)C(=O)[O-].[Na+] [DMB, Sodium 2,2-dimethylbutyrate]
NOAEL at 26 weeks (in vivo [1]; both sexes, Beagle): ≥ 300 mg/kg/day
NOEL (in vivo [1]; both, Beagle, 26 weeks): 50 mg/kg/day
adverse effects (in vivo [1]): no adverse effects
clinical observations (in vivo [1]): no important treatment-related clinical observations
effects on ECG measurements (in vivo [1]): No biologically significant effects
NOAEL at 14 days (in vivo [2]; female): 200 mg/kg/day
NOAEL at 14 days (in vivo [2]; male): 600 mg/kg/day
FOB effects after two-week drug free period (in vivo [2]): no residual FOB effects
QTc prolongation, average ([3]; 500 mg/kg/day, female Beagle dogs only, not statistically different from baseline (p>0.05)): 14%
effects on systemic hemodynamics ([3]; 28-Day study): No effects
increase in human γ-globin mRNA synthesis relative to total non-α-globin (human γ-globin mRNA): 2 fold
Subject incidence of Abdominal pain, upper ([4]; DMB N = 24): 4%
Subject incidence of Abdominal tenderness ([4]; DMB N = 24): 4%
Subject incidence of Cough ([4]; DMB N = 24): 4%
Subject incidence of Diarrhea ([4]; DMB N = 24): 8%
Subject incidence of Dizziness ([4]; DMB N = 24): 13%
Subject incidence of Dysguesia ([4]; DMB N = 24): 4%
Subject incidence of Dysphoria ([4]; DMB N = 24): 4%
Subject incidence of Ecchymosis ([4]; DMB N = 24): 4%
Subject incidence of Epistaxis ([4]; DMB N = 24): 4%
Subject incidence of Fatigue ([4]; DMB N = 24): 4%
Subject incidence of Headache ([4]; DMB N = 24): 29%
Subject incidence of Insomnia ([4]; DMB N = 24): 4%
Subject incidence of Myalgia ([4]; DMB N = 24): 4%
Subject incidence of Nausea ([4]; DMB N = 24): 8%
Subject incidence of Odynophagia ([4]; DMB N = 24): 4%
Subject incidence of Palpitations ([4]; DMB N = 24): 4%
Subject incidence of Syncope vasovagal ([4]; DMB N = 24): 4%
Subject incidence of URI ([4]; DMB N = 24): 8%
Subject incidence of Vessel puncture site hematoma ([4]; DMB N = 24): 17%
electrocardiogram abnormalities among patients treated with active study medication ([4]; considered of no clinical significance): 3
SAEs reported ([4]; single doses 2 to 20 mg/kg): no SAEs
clinically significant adverse events ([4]; single doses 2 to 20 mg/kg): no clinically significant adverse events; also recorded: no significant AEs
cytotoxicity (background lawn growth) [5]: no cytotoxicity was observed
mutation counts ([5]; up to 5000 per plate): No increase in mutation counts
cytotoxicity (background lawn growth) [6]: no cytotoxicity was observed
mutation counts ([6]; up to 5000 per plate): No increase in mutation counts
